The target of one assay is Bcl-2-like protein 1 (Homo sapiens, UniProt Q07817). The assay is described as follows: BCL-XL inhibitors, dose response, selectivity assay for MCL1 inhibitor project, biochemical, fluorescence polarization, 1536-well (AID 2218).
Another assay deals with Genome polyprotein (dengue virus type 2, UniProt P29990). Put plainly: Dengue-2 NS5 methyltransferase inhibitors, primary screen, biochemical, confirmation dose response (AID 588689). It counts as functional.
The target of assay [1] is T1, Induced myeloid leukemia cell differentiation protein Mcl-1 (Homo sapiens, UniProt Q07820). In kind it is functional.
The target in assay [2] is T1, Induced myeloid leukemia cell differentiation protein Mcl-1. Put plainly: MCL1-BIM BH3 interaction inhibitors, dose response, biochemical, fluorescence polarization, BIM-BH3 peptide, 1536-well (AID 2217).
The target of assay [3] is T2, Fatty acid synthase (Homo sapiens, UniProt P49327). The assay is described as follows: FAS thioesterase domain inhibitors, dose response, biochemical, endpoint fluorescence intensity, uHTS hits (AID 624327).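 Also: fluorescence from hydrolysis of an O-methyl fluorescein acyl ester substrate by the enzyme.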 In kind it is functional.
Assay [4] addresses T2, Fatty acid synthase. The assay is described as follows: FAS thioesterase domain inhibitors, dose response, biochemical, kinetic fluorescence intensity (AID 624326).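 Also: rate of fluorescence rise from hydrolysis of a fluorogenic O-methyl fluorescein ester substrate.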 In kind it is functional.
A short description of assay [5]: Luminescence Cell-Based Dose Confirmation HTS to Identify Inhibitors of Polyadenylation. In kind it is functional.
The target of assay [6] is T3, Mannose-6-phosphate isomerase (Homo sapiens, UniProt P34949).
T3 sequence (P34949 whole entry): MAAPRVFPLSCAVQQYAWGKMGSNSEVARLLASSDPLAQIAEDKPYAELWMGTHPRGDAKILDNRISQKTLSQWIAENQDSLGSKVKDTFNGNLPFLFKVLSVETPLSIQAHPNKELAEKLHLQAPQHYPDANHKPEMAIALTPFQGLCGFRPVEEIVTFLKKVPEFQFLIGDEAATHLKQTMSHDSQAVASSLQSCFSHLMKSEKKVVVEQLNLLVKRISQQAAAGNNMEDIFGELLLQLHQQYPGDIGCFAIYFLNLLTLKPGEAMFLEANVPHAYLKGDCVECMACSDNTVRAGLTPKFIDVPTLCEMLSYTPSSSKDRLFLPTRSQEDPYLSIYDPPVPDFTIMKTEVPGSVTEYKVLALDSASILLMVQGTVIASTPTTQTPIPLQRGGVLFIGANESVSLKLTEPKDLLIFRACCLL
The assay is described as follows: human PMI inhibitors, high substrate, primary screen, biochemical, fluorescence intensity, high mannose 6-phosphate (AID 1220).

Assay [7] can be described thus: inhibitors of Bluetongue virus cytopathic effect, confirmation, arbovirus, BSR cells (AID 1250).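 Also: protection from viral cytopathic effect measured as cell viability by ATP luminescence.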 It counts as functional.
Assay [8] addresses T3, Mannose-6-phosphate isomerase. The assay is described as follows: inhibitors of human PMI, primary screen, biochemical, fluorescence intensity, coupled assay (AID 1209).
In assay [9] the target is Transitional endoplasmic reticulum ATPase (Homo sapiens, UniProt P55072, C522A). The assay is described as follows: Luminescence counterscreen assay for p97 inhibitors: dose response biochemical high throughput screening assay to identify inhibitors of the C522A mutant p97 ATPase: synthesized compounds. [Related pubchem assays: 1481, 1517, 1551 ].
The target of assay [10] is Transitional endoplasmic reticulum ATPase (Homo sapiens, UniProt P55072). The assay is described as follows: Luminescence dose response biochemical high throughput screening assay for inhibitors of the p97 ATPase: synthesized compounds. [Related pubchem assays: 1481, 1517 ].
The target in assay [11] is 5-hydroxytryptamine receptor 1E (Homo sapiens, UniProt P28566). The assay is described as follows: Counterscreen assay for S1P3 antagonists: Dose response cell-based high throughput screening assay to identify antagonists of the 5-Hydroxytryptamine Receptor Subtype 1E (5HT1E). [Related pubchem assays: 1429, 485 ]. It counts as functional.
Assay [12] addresses Sphingosine 1-phosphate receptor 3 (Homo sapiens, UniProt Q99500). Put plainly: Dose response cell-based high throughput screening assay for antagonists of the Sphingosine 1-Phosphate Receptor 3 (S1P3). [Related pubchem assays: 1429, 485 ]. In kind it is functional.
The nature of assay [13]: enhancers of respiration in Yfh1-depleted yeast, dose response, Friedreich's ataxia, plus single-dose screen (AID 1465).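 Also: yeast depleted of Yfh1p frataxin homolog grown on glycerol needing respiration; WST-1 tetrazolium dye reduction as measure of cellular dehydrogenase metabolic activity.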 It counts as functional.
The target of assay [14] is 72 kDa type IV collagenase (Homo sapiens, UniProt P08253). The assay is described as follows: Dose Response validation of uHTS RPN11 inhibitor hits using a MMP-2 Fluorescence assay. In kind it is functional.
Assay [15] deals with 26S proteasome non-ATPase regulatory subunit 14 (Homo sapiens, UniProt O00487). The assay is described as follows: inhibition of proteasome subunit RPN11 – biochemical, fluorescence polarization, uHTS hits, confirmation (AID 602368). In kind it is functional.
Another assay concerns the target Prothrombin (Bos taurus, UniProt P00735). Put plainly: thrombin inhibition, dose response, biochemical, fluorescence polarization, uHTS hits (AID 602369). It counts as functional.
A short description of another assay: cells. In kind it is functional, cell-based.
Assay [16] can be described thus: inhibitors of SNCA 5'UTR-driven translation, confirmation, luminescence, H4 neuroglioblastoma cells, dose confirmation (AID 2454).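 Also: H4 neuroglioblastoma cells carrying an alpha-synuclein 5'UTR luciferase reporter; potency for inhibition of the luciferase signal.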 In kind it is functional, cell-based.
In assay [17] the test system is BJ. Put plainly: cells. In kind it is functional, cell-based. The note with it: Homo sapiens.
A short description of assay [18]: inhibitors of SNCA 5'UTR-driven reporter translation, confirmation, H4 neuroglioma cells, luminescence (AID 1988). It counts as functional, cell-based.
Assay [19] has as its system BJ. The assay is described as follows: cytotoxicity toward BJ-TERT fibroblasts, dose response, cell-based, RAS-independent, luminescence (AID 1933). It counts as functional. The note with it: Homo sapiens.
A short description of assay [20]: cytotoxicity toward DRD oncogenic fibroblasts, dose response, cell-based, non-viral oncogenic, luminescence (AID 1934). It counts as functional. The note with it: Homo sapiens.
For assay [21], the system named is BJ. Put plainly: cytotoxicity toward BJ-TERT-LT-ST fibroblasts, dose response, cell-based, RAS-independent, luminescence (AID 1935).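 Also: BJ fibroblasts immortalized with TERT plus LT and ST oncogenes.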 As to conditions: Homo sapiens. In kind it is functional.
Assay [22] in a line: luciferase reporter signal reduction – luminescence, H4-C neuroglioblastoma cells, dose response (AID 2458).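 Also: H4 neuroglioblastoma cells stably carrying a luciferase reporter gene fusion.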 In kind it is functional, cell-based.
In assay [23] the target is Sphingosine 1-phosphate receptor 2 (Homo sapiens, UniProt O95136). Put plainly: Dose Response Cell Based Assay for Agonists of the S1P2 Receptor of Purchased Analogues. [Related pubchem assays: 729, 843, 854, 736 ]. In kind it is functional.
Assay [24] in a line: Luminescence Cell-Based Dose Retest to Confirm Inhibitors of Cancer Stem Cells. [Related pubchem assays (depositor defined):AID2717, AID2721]. In kind it is functional. As to conditions: Homo sapiens.
Assay [25] deals with Inward rectifier potassium channel 2 (Mus musculus, UniProt P35561). The assay is described as follows: Manual electrophysiological patch clamp assay for SAR compounds that inhibit/block inward-rectifying potassium ion channel Kir2.1. [Related pubchem assays: 1843 (Summary assay for Kir2.1 inhibitor assays.), 1672 (Primary HTS of 305616 compounds where 2592 were identified as active.)]. In kind it is functional.

Active and inactive are the calls of the source.
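For AC50 in this document: cells exposed to compound for roughly 70 hours or longer before luminescence read.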

T1 sequence (Q07820 whole entry): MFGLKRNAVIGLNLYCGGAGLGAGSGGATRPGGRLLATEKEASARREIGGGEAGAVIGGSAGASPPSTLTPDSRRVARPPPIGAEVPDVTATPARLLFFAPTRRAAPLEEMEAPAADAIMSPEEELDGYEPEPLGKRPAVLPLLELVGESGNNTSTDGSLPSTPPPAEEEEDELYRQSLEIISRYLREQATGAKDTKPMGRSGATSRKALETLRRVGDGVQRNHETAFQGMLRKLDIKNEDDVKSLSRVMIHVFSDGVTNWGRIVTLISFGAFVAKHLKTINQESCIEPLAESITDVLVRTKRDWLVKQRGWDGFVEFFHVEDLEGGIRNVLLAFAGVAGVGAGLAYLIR
T2 sequence (P49327 whole entry, the tested form may be a part): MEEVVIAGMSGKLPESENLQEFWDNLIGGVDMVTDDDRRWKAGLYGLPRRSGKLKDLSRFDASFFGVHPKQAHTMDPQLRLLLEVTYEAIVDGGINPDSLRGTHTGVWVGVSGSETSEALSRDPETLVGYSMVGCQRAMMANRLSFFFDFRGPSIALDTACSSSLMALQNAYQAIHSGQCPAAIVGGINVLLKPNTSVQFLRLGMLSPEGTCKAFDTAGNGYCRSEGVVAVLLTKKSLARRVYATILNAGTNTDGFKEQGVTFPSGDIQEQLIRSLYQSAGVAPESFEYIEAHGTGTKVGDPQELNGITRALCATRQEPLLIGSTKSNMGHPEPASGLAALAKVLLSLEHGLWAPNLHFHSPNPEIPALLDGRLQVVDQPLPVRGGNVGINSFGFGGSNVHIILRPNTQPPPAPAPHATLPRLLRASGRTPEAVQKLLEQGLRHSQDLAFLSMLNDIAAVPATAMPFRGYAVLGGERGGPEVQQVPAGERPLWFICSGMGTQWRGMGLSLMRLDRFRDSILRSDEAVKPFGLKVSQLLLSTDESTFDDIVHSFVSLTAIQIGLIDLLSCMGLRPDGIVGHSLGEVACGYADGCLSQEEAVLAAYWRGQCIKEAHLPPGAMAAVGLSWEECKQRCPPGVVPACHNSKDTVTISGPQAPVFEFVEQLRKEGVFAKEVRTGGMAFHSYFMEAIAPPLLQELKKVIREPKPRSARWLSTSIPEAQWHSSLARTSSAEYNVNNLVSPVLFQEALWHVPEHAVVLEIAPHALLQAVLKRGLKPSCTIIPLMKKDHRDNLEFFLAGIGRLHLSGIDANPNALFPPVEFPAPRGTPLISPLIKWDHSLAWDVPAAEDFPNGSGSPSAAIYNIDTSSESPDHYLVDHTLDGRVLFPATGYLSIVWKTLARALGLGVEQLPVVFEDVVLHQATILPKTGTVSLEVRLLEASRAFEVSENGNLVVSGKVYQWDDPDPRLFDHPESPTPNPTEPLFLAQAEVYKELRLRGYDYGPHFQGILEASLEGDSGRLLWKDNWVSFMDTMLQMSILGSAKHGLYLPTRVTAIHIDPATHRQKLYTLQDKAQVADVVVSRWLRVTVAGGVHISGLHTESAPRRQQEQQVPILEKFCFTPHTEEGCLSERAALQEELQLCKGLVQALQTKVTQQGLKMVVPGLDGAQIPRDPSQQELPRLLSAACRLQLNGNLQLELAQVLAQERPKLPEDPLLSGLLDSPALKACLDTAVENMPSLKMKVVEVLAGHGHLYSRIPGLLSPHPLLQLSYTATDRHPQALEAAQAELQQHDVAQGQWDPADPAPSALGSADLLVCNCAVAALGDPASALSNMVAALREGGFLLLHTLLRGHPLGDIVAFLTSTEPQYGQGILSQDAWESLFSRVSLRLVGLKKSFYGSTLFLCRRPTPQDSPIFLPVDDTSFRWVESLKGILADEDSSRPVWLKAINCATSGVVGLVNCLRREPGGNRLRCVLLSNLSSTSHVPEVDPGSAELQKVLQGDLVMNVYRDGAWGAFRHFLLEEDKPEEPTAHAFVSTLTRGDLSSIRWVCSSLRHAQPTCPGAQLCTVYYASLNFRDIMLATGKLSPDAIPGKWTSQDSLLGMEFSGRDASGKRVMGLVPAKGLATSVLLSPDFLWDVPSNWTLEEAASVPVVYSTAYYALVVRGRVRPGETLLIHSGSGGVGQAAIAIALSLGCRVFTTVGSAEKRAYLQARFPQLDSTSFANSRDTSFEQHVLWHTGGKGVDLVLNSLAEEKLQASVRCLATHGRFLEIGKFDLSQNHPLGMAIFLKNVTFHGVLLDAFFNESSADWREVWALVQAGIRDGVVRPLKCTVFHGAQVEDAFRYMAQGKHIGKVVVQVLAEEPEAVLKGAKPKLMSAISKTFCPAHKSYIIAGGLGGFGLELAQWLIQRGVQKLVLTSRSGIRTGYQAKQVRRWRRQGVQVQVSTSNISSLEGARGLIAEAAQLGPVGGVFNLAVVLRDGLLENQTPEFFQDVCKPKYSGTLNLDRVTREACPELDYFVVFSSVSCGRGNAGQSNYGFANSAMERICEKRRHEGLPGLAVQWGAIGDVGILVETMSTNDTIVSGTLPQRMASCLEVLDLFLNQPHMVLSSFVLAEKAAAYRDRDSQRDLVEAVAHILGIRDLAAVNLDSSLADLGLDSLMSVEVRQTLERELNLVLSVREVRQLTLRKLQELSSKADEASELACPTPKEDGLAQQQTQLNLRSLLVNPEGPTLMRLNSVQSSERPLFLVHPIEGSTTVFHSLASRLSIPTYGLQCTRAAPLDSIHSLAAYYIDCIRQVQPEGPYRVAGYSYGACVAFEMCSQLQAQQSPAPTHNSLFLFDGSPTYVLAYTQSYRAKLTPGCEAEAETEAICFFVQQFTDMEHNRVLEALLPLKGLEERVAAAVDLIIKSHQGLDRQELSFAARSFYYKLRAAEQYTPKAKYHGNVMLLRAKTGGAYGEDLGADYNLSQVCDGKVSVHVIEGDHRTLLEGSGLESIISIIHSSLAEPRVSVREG
72 kDa type IV collagenase, sequence (P08253 whole entry): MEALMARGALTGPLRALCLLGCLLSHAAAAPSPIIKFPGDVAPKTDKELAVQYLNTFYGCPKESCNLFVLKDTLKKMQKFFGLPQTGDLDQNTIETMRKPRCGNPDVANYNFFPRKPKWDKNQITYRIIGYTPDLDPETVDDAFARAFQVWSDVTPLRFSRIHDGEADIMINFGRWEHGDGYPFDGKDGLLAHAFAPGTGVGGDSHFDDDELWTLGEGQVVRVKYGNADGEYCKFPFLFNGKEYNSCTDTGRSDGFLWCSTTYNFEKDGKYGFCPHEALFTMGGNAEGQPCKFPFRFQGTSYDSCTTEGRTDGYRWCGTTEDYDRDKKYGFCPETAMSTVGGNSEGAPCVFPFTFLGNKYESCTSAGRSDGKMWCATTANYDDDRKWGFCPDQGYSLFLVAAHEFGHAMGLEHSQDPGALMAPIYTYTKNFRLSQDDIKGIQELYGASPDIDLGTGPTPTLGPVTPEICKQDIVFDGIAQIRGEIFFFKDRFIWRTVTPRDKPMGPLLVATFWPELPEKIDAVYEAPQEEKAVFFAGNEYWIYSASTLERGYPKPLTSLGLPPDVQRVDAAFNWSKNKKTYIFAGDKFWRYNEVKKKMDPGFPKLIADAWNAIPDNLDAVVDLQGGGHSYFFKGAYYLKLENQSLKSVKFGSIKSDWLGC
Transitional endoplasmic reticulum ATPase (Homo sapiens, UniProt P55072), sequence (P55072 whole entry): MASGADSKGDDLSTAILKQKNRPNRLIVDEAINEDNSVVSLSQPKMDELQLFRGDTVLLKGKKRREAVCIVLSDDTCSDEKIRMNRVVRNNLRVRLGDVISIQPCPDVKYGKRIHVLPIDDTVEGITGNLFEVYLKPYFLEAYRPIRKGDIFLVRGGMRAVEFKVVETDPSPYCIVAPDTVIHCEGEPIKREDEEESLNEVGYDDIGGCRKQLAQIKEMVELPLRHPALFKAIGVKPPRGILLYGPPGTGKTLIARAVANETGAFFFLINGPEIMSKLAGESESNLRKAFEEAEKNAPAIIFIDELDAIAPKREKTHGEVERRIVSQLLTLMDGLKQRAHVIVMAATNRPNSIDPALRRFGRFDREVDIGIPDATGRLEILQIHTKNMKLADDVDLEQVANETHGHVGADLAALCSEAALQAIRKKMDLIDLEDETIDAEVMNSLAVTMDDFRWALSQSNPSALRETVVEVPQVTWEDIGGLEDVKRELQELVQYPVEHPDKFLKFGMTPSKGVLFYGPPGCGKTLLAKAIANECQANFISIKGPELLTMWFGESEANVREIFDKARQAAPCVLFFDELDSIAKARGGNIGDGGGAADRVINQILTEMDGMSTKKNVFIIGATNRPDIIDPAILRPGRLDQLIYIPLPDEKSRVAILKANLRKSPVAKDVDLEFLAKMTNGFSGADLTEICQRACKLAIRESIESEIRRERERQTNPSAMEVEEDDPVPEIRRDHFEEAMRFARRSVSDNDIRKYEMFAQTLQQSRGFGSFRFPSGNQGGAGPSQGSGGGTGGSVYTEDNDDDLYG
5-hydroxytryptamine receptor 1E, sequence (P28566 whole entry): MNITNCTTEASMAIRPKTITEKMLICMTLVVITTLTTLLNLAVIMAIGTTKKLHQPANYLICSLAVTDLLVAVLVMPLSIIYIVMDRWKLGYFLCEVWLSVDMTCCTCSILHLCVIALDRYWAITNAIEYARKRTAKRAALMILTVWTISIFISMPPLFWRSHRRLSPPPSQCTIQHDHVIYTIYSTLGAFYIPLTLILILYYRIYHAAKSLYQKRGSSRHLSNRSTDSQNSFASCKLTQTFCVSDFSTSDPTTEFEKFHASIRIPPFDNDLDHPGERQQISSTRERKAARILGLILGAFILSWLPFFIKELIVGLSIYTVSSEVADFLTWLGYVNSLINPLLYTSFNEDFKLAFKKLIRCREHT
Sphingosine 1-phosphate receptor 3, sequence (Q99500 whole entry): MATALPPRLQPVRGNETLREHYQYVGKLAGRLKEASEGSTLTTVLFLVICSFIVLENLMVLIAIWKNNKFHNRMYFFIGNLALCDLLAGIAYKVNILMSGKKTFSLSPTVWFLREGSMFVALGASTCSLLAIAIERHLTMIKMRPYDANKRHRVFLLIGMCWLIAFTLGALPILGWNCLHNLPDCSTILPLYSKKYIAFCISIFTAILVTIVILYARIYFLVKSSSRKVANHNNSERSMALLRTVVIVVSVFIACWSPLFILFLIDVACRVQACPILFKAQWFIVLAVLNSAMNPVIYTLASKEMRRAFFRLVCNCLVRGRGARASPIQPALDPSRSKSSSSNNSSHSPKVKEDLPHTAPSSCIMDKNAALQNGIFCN

Consider `O=C(O)COc1ccccc1C(Nc1ccccn1)c1cc(Cl)c2cccnc2c1O` (stereo not given), for which the 50% inhibitory concentration (IC50) on Bcl-2-like protein 1 was > 109 µM (not active); on Genome polyprotein it was 43.3 µM (active); in assay [1], 9.35 µM (active); in assay [2], 1.74 µM (active); at Fatty acid synthase [3] it was 18.5 µM (active); at Fatty acid synthase [4] it was 14.3 µM (active).
As for `CC(C)=CCOc1c2ccoc2cc2oc(=O)ccc12` [ISOIMPERATORIN], the EC50 in assay [5] was > 120 µM (not active).
`Cc1cc(/N=C/c2c(O)ccc3cc(Br)ccc23)no1`: the IC50 in assay [6] was > 50 µM (not active); in [7], 31.8 µM (active); in assay [8], > 50 µM (not active); in assay [1], > 54 µM (not active).
On to `N#C/C=C/c1ccccc1Nc1ccc(S(N)(=O)=O)cc1`, for which the IC50 in assay [9] and in [10] was > 50 µM (not active) in each case.
In the case of `CSc1ccccc1NC(=O)C1CC(c2ccccc2O)=NO1` (stereo not given), the IC50 in assay [11] and in assay [12] was > 50 µM (not active) throughout.
For `CC(=O)N1CCc2cc(NN=C3C(=O)CC(C)(C)CC3=O)ccc21`, the EC50 in [13] is > 100 µM (active). The results for the IC50 (in assay [14]; in assay [15]; at Prothrombin) were > 100 µM (inactive), 35.5 µM (active) and 31.5 µM (active), respectively.
In the case of `CCOc1ccc(S(=O)(=O)Nc2cc(OC)ccc2OC)cc1`, the EC50 is 839 nM (active) in the assay “cells”; 947 nM (active) in assay [16]; 21.2 µM (active) in the assay on BJ [17]; < 100 nM (active) in assay [18]; 451 nM (active) in the assay on BJ [19]; 965 nM (inconclusive) in [20]. For the same compound, the EC50 in the assay on BJ [21] was 495 nM (inconclusive); in assay [22], 553 nM (active).
As to `Cc1cc(C(=O)CN2C(=O)C(=O)N(Cc3ccccc3)C2=O)c(C)n1Cc1ccccc1`, the half-maximal effective concentration (EC50) in assay [23] is > 30 µM (not active). In addition, the AC50 in assay [24] is 2.54 µM (active).
On to `COc1ccc(CNCc2cc(F)cc(F)c2)cc1`, for which the concentration for half-maximal inhibition (IC50) in assay [25] was 7.22 µM (active).

For the origin of these results see ChEMBL document CHEMBL1201862, “PubChem BioAssay data set” (2004).
